Measured values published in patent US10993923B2, “Method for ameliorating fibrosis using 1-[4-chloro-3-(trifluoromethyl)phenyl]-3-[3-(4-cyanophenoxy)phenyl]urea” (priority 2016, dated 2021).

Columns and labels:
[1] = system: human lung epithelial cells (A549 cell line); test: TGF-β1-induced epithelial mesenchymal transition (EMT) in A549 cells; assay type: cell-based
Protocol: Murine NIH3T3 fibroblasts and human lung epithelial cells (A549 cells) were purchased from the Bioresource Collection and Research Center (Hsinchu, Taiwan). Cells were cultured in Dulbecco's modified eagle medium (DMEM) containing 10% fetal bovine serum (FBS), 100 μg/mL penicillin, 100 μg/mL streptomycin. Cells were cultured at 37° C. in a humidified atmosphere of 5% CO2 and passaged every 4 to 5 days at 1:4 ratios.
Whole-cell extracts were obtained via RIPA buffer (Millipore, USA) and protein concentrations were quantified via a BCA protein assay kit (Thermo Fisher Scientific, USA). 20 or 25 μg of protein was added to various percentages of SDS-sodium dodecyl sulfate-acrylamide gel and blotted onto a polyvinylidene fluoride (PVDF) membrane. The membrane was then reacted with a primary antibody; after extensive washing, the membrane was reacted with a […] containing a second antibody. Proteins were detected by Immobilon Western Chemiluminescent HRP substrate (Millipore, USA) or ECL detection system (UVP Corporation, USA).
Antibodies for immunoblotting techniques such as anti-E-cadherin, anti-Fibronectin, anti-N-cadherin were purchased from Abcam (UK). Other antibodies such as anti-SHP-1, anti-phosphorylated STAT3(Tyr705), anti-STAT3α-smooth muscle actin (α-SMA) and anti-caspase-9 were purchased from Cell Signaling Corporation ([…], United States).
Smart-pool siRNA, including control (sc-37007) siRNA, siRNA anti-SHP-1, and STAT3, were purchased from Santa Cruz Biotechnology (California, USA).

[2] = system: HSC-T6 cells; test: Apoptosis (Annexin V / propidium iodide flow cytometry), HSC-T6 cells; assay type: cell-based, rat
Protocol: (§1) Rat immortal hepatic stellate cell line HSC-T6 and LX2 human hepatic stellate cell line were provided by Professor Scott Friedman of Mount Sinai Hospital in New York, USA. The primary mouse HSCs were obtained via the way: after intubating the hepatic portal vein of the mouse, the cells were perfused with Leffert's and ethylene glycol bis-aminoethyl ether tetraacetic acid (EGTA) buffer in situ, and then collagenase was injected to digest the liver tissue, and then the primary mouse HSCs were isolated by Histodnz gradient. […]
HSC-T6 cells, LX2 cells or primary mouse HSCs cells were seeded in 96-well plates (5,000 cells/well) for 24 hours, and the cells were treated with various concentrations of 1-[4-chloro-3-(trifluoromethyl)phenyl]-3-[3-(4-cyanophenoxy)phenyl]urea or Sorafenib for 24 or 48 hours. The effect of each reagent on the cell viability and the cell were evaluated by CellTiter 96 AQueous one solution of 3-(4,5-dimethylthiazol-2-yl)-5-(3-carboxymethoxyphenyl)-2-(4-sulfophenyl)-2H-tetra zolium, an inner, MTS (Promega, USA). […] The proportion of apoptotic cells was mixed the early (Annexin V+/PI−) and the late (Annexin V+/PI+) apoptotic cells measured by BD FACS Verse flow cytometry (BD, USA). […]

[3] = system: LX2 cells; test: Cell viability (MTS), LX2 cells; assay type: cell-based, human; details: 24 hours; effect more significant than sorafenib; FIG. 14A
Protocol: as §1
(§2) HSC-T6 cells, LX2 cells or primary mouse HSCs cells were seeded in 96-well plates (5,000 cells/well) for 24 hours, and the cells were treated with various concentrations of 1-[4-chloro-3-(trifluoromethyl)phenyl]-3-[3-(4-cyanophenoxy)phenyl]urea or Sorafenib for 24 or 48 hours. The effect of each reagent on the cell viability and the cell were evaluated by CellTiter 96 AQueous one solution of 3-(4,5-dimethylthiazol-2-yl)-5-(3-carboxymethoxyphenyl)-2-(4-sulfophenyl)-2H-tetra zolium, an inner, MTS (Promega, USA). […] The proportion of apoptotic cells was mixed the early (Annexin V+/PI−) and the late (Annexin V+/PI+) apoptotic cells measured by BD FACS Verse flow cytometry (BD, USA).

[4] = system: CCl4-induced hepatic fibrosis in mice; test: CCl4-induced hepatic fibrosis mice regression model; assay type: in vivo, male C57BL/6J mice; details: 10 mg/kg for 4 weeks without CCl4 after 8 weeks CCl4 induction
Text: In male C57BL/6J mice, liver fibrosis was induced by carbon tetrachloride (CCl4). The mice were given peritoneal injection of carbon tetrachloride for 4 or 8 weeks every two weeks.
(§3) The mice liver samples were stored in 10% formaldehyde, dehydrated with gradient alcohol, embedded in paraffin blocks, sectioned to a thickness of 3 μm, placed on glass slides, and stained with Picrosirius Red Stain kit (ScyTek, USA), following the manufacturer's instructions. The severity of liver fibrosis was graded according to the Ishak fibrosis score. Quantitative collagen-positive area (qCPA) was determined by densitometry via ImageJ software. Hepatic hydroxyproline concentrations were measured by the hydroxyproline assay kit (Biovision, USA), following the manufacturer's instructions Immunohistochemistry was performed by the Leica BOND-MAX automatic chromatograph (Leica Biosystems, Germany), following the manufacturer's instructions.

[5] = system: PDGFR and STAT3 pathways in HSC-T6 cells; test: Western blot of signalling proteins in HSC-T6 cells; assay type: cell-based, rat
Protocol: as §1, with “gradient. HSC-T6 cells were cultured in Waymouth medium; LX2 cells and primary mouse HSCs were cultured in Dulbecco's Modified Eagle Medium (DMEM) containing 10% fetal bovine serum (FBS), 100 μg/mL penicillin, 100 μg/mL streptomycin, and 2 mM L-glutamine HSC-T6 cells, LX2 cells and primary mouse HSCs were cultured in a humidified incubator containing 5% carbon dioxide at 37° C. After adding the FBS, the resting HSC is started.” for “gradient.”
Whole-cell extracts were obtained via RIPA buffer (Millipore, USA) and protein concentrations were quantified via a BCA protein assay kit (Thermo Fisher Scientific, USA). […] Proteins were detected by Immobilon Western Chemiluminescent HRP substrate (Millipore, USA) or ECL detection system (UVP Corporation, USA). […]

[6] = system: BDL-induced cholestasis fibrosis in mice; test: Bile duct ligation (BDL) fibrosis mice prevention model; assay type: in vivo, Balb/C mice; details: 10 mg/kg from day 1 until sacrifice on day 14 of BDL; FIG. 13A, 13B
Text: In the bile duct ligation (BDL) mouse model, the common bile duct of Balb/C mice was double-ligated and excised. Mice were fed daily with vehicle or 1-[4-chloro-3-(trifluoromethyl)phenyl]-3-[3-(4-cyanophenoxy)phenyl]urea on day 1 or day 8 until they were sacrificed on day 14.
as §3

[7] = system: HSC-T6 cells; test: Cell viability (MTS), HSC-T6 cells; assay type: cell-based, rat; details: 24 hours; effect more significant than sorafenib; FIG. 14A
Protocol: as §1, §2

For N#Cc1ccc(Oc2cccc(NC(=O)Nc3ccc(Cl)c(C(F)(F)F)c3)c2)cc1 [1-[4-chloro-3-(trifluoromethyl)phenyl]-3-[3-(4-cyanophenoxy)phenyl]urea], the “effects of the compound (p-STAT3, EMT marker, migration and invasion) after SHP-1 knock out with siRNA” value ([1]; A549, FIG. 9B) was “offset the effects”, the “effects of the compound (EMT marker, migration and invasion) after STAT3 knock out” value ([1]; A549, FIG. 9C) was “offset the effects” and the “TGF-β1-induced EMT (EMT marker profile)” value ([1]; A549 exposed to TGF-β1, FIG. 8B) was “reversed TGF-β1-induced EMT in a dose-dependent manner”. The “migration and invasion of cells” value ([1]; A549 exposed to TGF-β1, FIGS. 8C and 8D) was “reduced”, the HSC apoptosis ([2]; HSC-T6, 24 hours, compared with sorafenib, FIG. 14B) was “significantly increased HSC apoptosis in a dose-dependent manner” and the “compound-induced apoptosis in STAT3-overexpressing HSCs” value ([2]; rat STAT3 stable overexpression clone, FIG. 15C) was “significantly abolished”. The “viability of LX2 cells” value [3] was “dose-dependent effects to reduce the viability”, the “qCPA (quantitative collagen-positive area)” value ([4]; FIG. 12G) was “significantly decreased” and the Ishak fibrosis score ([4]; FIG. 12H) was “significantly decreased”. For the same compound, the “p-PDGFR and p-Akt in the PDGFR pathway” value ([5]; 10 μM for 4 hours, then PDGF-BB 100 ng/mL 10 minutes, FIG. 14E) was “downregulated”, the “downregulation of p-STAT3 and cyclin D1, compared with sorafenib” value ([5]; FIG. 15A) was “more significant dose-escalation effects on the downregulation” and the “quantitative collagen-positive area (qCPA)” value [6] was “significantly reduced”. For the same compound, the “viability of HSC-T6 cells” value [7] was “dose-dependent effects to reduce the viability”.
